Data reported in ChEMBL document CHEMBL6078707, “Preferential Synaptic Type of GABA-A Receptor Ligands Enhancing Neuronal Survival and Facilitating Functional Recovery After Ischemic Stroke” (J Med Chem, 2024).

Tests used:
[1] = Thermodynamic solubility of compound in phosphate buffer at pH 7.4 at 2 mg measured after 24 hrs by HPLC analysis; assay type: physicochemical; conditions: read-out: Therm_solubility
[2] = Permeability of compound in PBS buffer at pH7.4 at 100 uM incubated for 5 hrs by UPLC-MS based PAMPA assay; assay type: ADME; conditions: pH 7.4, read-out: permeability
[3] = Metabolic stability in human liver microsomes assessed as intrinsic clearance; assay type: ADME, Microsome; conditions: read-out: CLH
[4] = Unbound drug concentration in male Sprague-Dawley rat brain at 3 mg/kg, ip measured after 480 mins by LC-ESI/MS-MS analysis; assay type: ADME, organism-based; conditions: in vivo, 8 h
[5] = Cmax in male Sprague-Dawley rat at 5 mg/kg, ip measured after 480 mins by LC-ESI/MS-MS analysis; assay type: ADME, organism-based; conditions: in vivo
[6] = Cmax in male Sprague-Dawley rat brain at 3 mg/kg, ip measured after 480 mins by LC-ESI/MS-MS analysis; assay type: ADME, organism-based
[7] = Terminal half-life in male Sprague-Dawley rat brain at 3 mg/kg, ip measured after 480 mins by LC-ESI/MS-MS analysis; assay type: ADME, organism-based; conditions: read-out: beta t1/2
[8] = MRT in male Sprague-Dawley rat plasma at 3 mg/kg, ip measured after 480 mins by LC-ESI/MS-MS analysis; assay type: ADME, organism-based
[9] = AUC (0 to t) in male Sprague-Dawley rat brain at 3 mg/kg, ip measured after 480 mins by LC-ESI/MS-MS analysis; assay type: ADME, organism-based; conditions: in vivo, 8 h
[10] = AUC (0 to t) in male Sprague-Dawley rat plasma at 3 mg/kg, iv measured after 480 mins by LC-ESI/MS-MS analysis; assay type: ADME, organism-based; conditions: in vivo, 8 h
[11] = Permeability across basolateral to apical side in MDCKII-MDR1 cells at pH 7.4; assay type: ADME, cell-based, Canis lupus familiaris; conditions: dog, MDCK-MDR1, pH 7.4
[12] = Cmax in male Sprague-Dawley rat plasma at 3 mg/kg, ip measured after 480 mins by LC-ESI/MS-MS analysis; assay type: ADME, organism-based
[13] = Tmax in male Sprague-Dawley rat brain at 3 mg/kg, iv measured after 480 mins by LC-ESI/MS-MS analysis; assay type: ADME, organism-based
[14] = Drug distribution in MCAO-reperfusion induced male Sprague-Dawley rat brain at 1.5 mg/kg, ip administered once daily for 3 days starting from 1.5 hrs post reperfusion by DESI mass spectrometric imaging analysis; assay type: ADME, organism-based; conditions: in vivo, 72 h, time 3 day
[15] = AUC (0 to t) in male Sprague-Dawley rat at 5 mg/kg, ip measured after 480 mins by LC-ESI/MS-MS analysis; assay type: ADME, organism-based; conditions: in vivo
[16] = Unbound drug concentration in male Sprague-Dawley rat plasma at 3 mg/kg, ip measured after 480 mins by LC-ESI/MS-MS analysis; assay type: ADME, organism-based; conditions: in vivo, 8 h
[17] = Tmax in male Sprague-Dawley rat plasma at 3 mg/kg, ip measured after 480 mins by LC-ESI/MS-MS analysis; assay type: ADME, organism-based
[18] = MRT in male Sprague-Dawley rat at 5 mg/kg, ip measured after 480 mins by LC-ESI/MS-MS analysis; assay type: ADME, organism-based; conditions: in vivo
[19] = AUC (0 to t) in male Sprague-Dawley rat brain at 3 mg/kg, iv measured after 480 mins by LC-ESI/MS-MS analysis; assay type: ADME, organism-based; conditions: in vivo, 8 h
[20] = Terminal half-life in male Sprague-Dawley rat at 5 mg/kg, ip measured after 480 mins by LC-ESI/MS-MS analysis; assay type: ADME, organism-based; conditions: in vivo, read-out: beta t1/2
[21] = Permeability across apical to basolateral side in MDCKII-MDR1 cells at pH 7.4; assay type: ADME, cell-based, Canis lupus familiaris; conditions: dog, MDCK-MDR1, pH 7.4; read-out: permeability
[22] = Metabolic stability in human liver microsomes assessed as half-life; assay type: ADME, Microsome
[23] = Terminal half-life in male Sprague-Dawley rat brain at 3 mg/kg, iv measured after 480 mins by LC-ESI/MS-MS analysis; assay type: ADME, organism-based; conditions: read-out: beta t1/2
[24] = Terminal half-life in male Sprague-Dawley rat plasma at 3 mg/kg, ip measured after 480 mins by LC-ESI/MS-MS analysis; assay type: ADME, organism-based; conditions: read-out: beta t1/2
[25] = MRT in male Sprague-Dawley rat brain at 3 mg/kg, iv measured after 480 mins by LC-ESI/MS-MS analysis; assay type: ADME, organism-based
[26] = Drug metabolism in human liver microsomes assessed as hydroxylation mediated metabolite formation by LCMS analysis; assay type: ADME, Microsome
[27] = Tmax in male Sprague-Dawley rat brain at 3 mg/kg, ip measured after 480 mins by LC-ESI/MS-MS analysis; assay type: ADME, organism-based
[28] = AUC (0 to t) in male Sprague-Dawley rat plasma at 3 mg/kg, ip measured after 480 mins by LC-ESI/MS-MS analysis; assay type: ADME, organism-based
[29] = Volume of distribution in male Sprague-Dawley rat at 5 mg/kg, ip measured after 480 mins by LC-ESI/MS-MS analysis; assay type: ADME, organism-based; conditions: in vivo, 8 h
[30] = Clearance in male Sprague-Dawley rat plasma at 3 mg/kg, iv measured after 480 mins by LC-ESI/MS-MS analysis; assay type: ADME, organism-based
[31] = MRT in male Sprague-Dawley rat brain at 3 mg/kg, ip measured after 480 mins by LC-ESI/MS-MS analysis; assay type: ADME, organism-based
[32] = Terminal half-life in male Sprague-Dawley rat plasma at 3 mg/kg, iv measured after 480 mins by LC-ESI/MS-MS analysis; assay type: ADME, organism-based; conditions: read-out: beta t1/2
[33] = Volume of distribution in male Sprague-Dawley rat plasma at 3 mg/kg, iv measured after 480 mins by LC-ESI/MS-MS analysis; assay type: ADME, organism-based
[34] = Cmax in male Sprague-Dawley rat brain at 3 mg/kg, iv measured after 480 mins by LC-ESI/MS-MS analysis; assay type: ADME, organism-based
[35] = MRT in male Sprague-Dawley rat plasma at 3 mg/kg, iv measured after 480 mins by LC-ESI/MS-MS analysis; assay type: ADME, organism-based
[36] = Clearance in male Sprague-Dawley rat at 5 mg/kg, ip measured after 480 mins by LC-ESI/MS-MS analysis; assay type: ADME, organism-based; conditions: in vivo
[37] = Half-life in human plasma; assay type: ADME, cell-free
[38] = Half-life in male Sprague-Dawley rat at 5 mg/kg, ip by HPLC analysis; assay type: ADME, organism-based; conditions: in vivo

SMILES: Cc1ccc2nc(-c3ccc(F)cc3)c(CC(=O)N3CCOCC3)n2n1.O=C(O)C(O)C(O)C(=O)O
- solubility thermodynamic at 24 h [1]: 1590 µg/mL
- Papp at 5 h, 100 µM [2]: 9.99 ×10⁻⁶ cm/s

SMILES: Cc1ccc2nc(-c3ccc(F)cc3)c(CC(=O)N3CCCC3)n2n1.O=C(O)C(O)C(O)C(=O)O
- Papp at 5 h, 100 µM [2]: 22.9 ×10⁻⁶ cm/s

SMILES: COc1ccc(NC(=O)Cc2c(-c3ccc(F)cc3)nc3ccc(C)cn23)cc1.O=C(O)C(O)C(O)C(=O)O
- Papp at 5 h, 100 µM [2]: 1.03 ×10⁻⁶ cm/s

SMILES: COc1ccc(NC(=O)Cc2c(-c3ccc(F)cc3)nc3ccc(C)nn23)cc1.O=C(O)C(O)C(O)C(=O)O
- solubility thermodynamic at 24 h [1]: 130 µg/mL
- Papp at 5 h, 100 µM [2]: 433 ×10⁻⁶ cm/s

SMILES: Cc1ccc2nc(-c3ccc(F)cc3)c(CC(=O)Nc3ccccc3)n2c1.O=C(O)C(O)C(O)C(=O)O
- Papp at 5 h, 100 µM [2]: 5.29 ×10⁻⁶ cm/s

SMILES: Cc1ccc2nc(-c3ccc(F)cc3)c(CC(=O)Nc3ccccc3F)n2c1.O=C(O)C(O)C(O)C(=O)O
- Papp at 5 h, 100 µM [2]: 6.25 ×10⁻⁶ cm/s

SMILES: Cc1ccc2nc(-c3ccc(F)cc3)c(CC(=O)Nc3ccc(F)cc3)n2c1.O=C(O)C(O)C(O)C(=O)O
- Papp at 5 h, 100 µM [2]: 6.06 ×10⁻⁶ cm/s

SMILES: Cc1ccc2nc(-c3ccc(F)cc3)c(CC(=O)N3CCSCC3)n2n1.O=C(O)C(O)C(O)C(=O)O
- solubility thermodynamic at 24 h [1]: 320 µg/mL
- Papp at 5 h, 100 µM [2]: 11.7 ×10⁻⁶ cm/s

SMILES: Cc1ccc2nc(-c3ccc(F)cc3)c(CC(=O)N(C)C)n2n1.O=C(O)C(O)C(O)C(=O)O
- solubility thermodynamic at 24 h [1]: > 2000 µg/mL
- Papp at 5 h, 100 µM [2]: 9.79 ×10⁻⁶ cm/s

SMILES: Cc1ccc2nc(-c3ccc(F)cc3)c(CC(=O)N3CCCC3)n2c1.O=C(O)C(O)C(O)C(=O)O
- microsomal CLint [3]: 9.8 µL/min/mg
- Cp(f) [4]: 348.03 nM
- Cmax [5]: 2340 ng/mL
- Cmax [6]: 220 ng/g
- half-life [7]: 653 min
- MRT [8]: 50.9 min
- AUCt [9]: 8229 ng·min/g
- AUCt [10]: 538253 ng·min/g
- solubility thermodynamic at 24 h [1]: 1870 µg/mL
- Papp B→A [11]: 29.7 ×10⁻⁶ cm/s
- Cmax [12]: 4500 ng/mL
- Tmax [13]: 5 min
- Drug uptake [14]: Active
- AUC(0-t) at 8 h [15]: 39 ng·h/mL
- Drug uptake(free) [16]: 2482.75 nM
- Tmax [17]: 5 min
- MRT [18]: 27.6 min
- AUCt [19]: 15265 ng·min/g
- Papp at 5 h, 100 µM [2]: 29.7 ×10⁻⁶ cm/s
- half-life [20]: 30.6 min
- Papp A→B [21]: 55.6 ×10⁻⁶ cm/s
- half-life [22]: 176 min
- half-life [23]: 135 min
- half-life [24]: 270 min
- MRT [25]: 65.5 min
- Drug metabolism [26]: metabolite_detected
- Tmax [27]: 5 min
- AUC(0-t) at 8 h [28]: 2140 ng·h/mL
- Vd [29]: 0.104 L/kg
- clearance [30]: 5.56 mL/min/kg
- MRT [31]: 102 min
- half-life [32]: 47.8 min
- Vd [33]: 0.383 L/kg
- Cmax [34]: 445 ng/g
- MRT [35]: 39.7 min
- CL/F [36]: 2.35 mL/min

SMILES: Cn1c(=O)c2c(ncn2C)n(C)c1=O [CAFFEINE]
- Papp at 5 h, 100 µM [2]: 15.2 ×10⁻⁶ cm/s

SMILES: CCN1CCCC1CNC(=O)c1cc(S(N)(=O)=O)ccc1OC (stereo not given) [SULPIRIDE]
- Papp at 5 h, 100 µM [2]: 0.016 ×10⁻⁶ cm/s

SMILES: Cc1ccc(-c2nc3ccc(C)cn3c2CC(=O)N(C)C)cc1.Cc1ccc(-c2nc3ccc(C)cn3c2CC(=O)N(C)C)cc1.O=C(O)C(O)C(O)C(=O)O [ZOLPIDEM TARTRATE]
- Papp at 5 h, 100 µM [2]: 21.6 ×10⁻⁶ cm/s

SMILES: Cc1ccc(-c2nc3ccc(C)cn3c2CC(=O)N(C)C)cc1 [ZOLPIDEM]
- half-life [37]: 120 min
- solubility thermodynamic at 24 h [1]: > 2000 µg/mL
- half-life [38]: 30.6 min
